Assay results from ChEMBL document CHEMBL1201862, “PubChem BioAssay data set” (2004).
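These data come from cells grown in 96-well plates and exposed to compound for 48 hours at five concentrations. GI50 is the concentration that inhibits growth by half.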 The source made the active and inactive calls. Rule as the data show it: active = GI50 up to about 1.1 µM and inactive = higher.

How the values were obtained:
Assay in all cases: NCI tumour cell line growth inhibition, 48 h
SK-MEL-5 = system: SK-MEL-5
SF-268 = system: SF-268
NCI-H226 = system: NCI-H226
MCF7 = system: MCF7
OVCAR-8 = system: OVCAR-8
EKVX = system: EKVX
786-0 = system: 786-0
A549 = system: A549
MDA-N = system: MDA-N
UACC-62 = system: UACC-62
SN12C = system: SN12C
SK-MEL-28 = system: SK-MEL-28
KM12 = system: KM12
M14 = system: M14
LOX IMVI = system: LOX IMVI
HCT-116 = system: HCT-116
OVCAR-5 = system: OVCAR-5
Malme-3M = system: Malme-3M
OVCAR-3 = system: OVCAR-3
SK-OV-3 = system: SK-OV-3

| SMILES | GI50 (SK-MEL-5) | GI50 (SF-268) | GI50 (NCI-H226) | GI50 (MCF7) | GI50 (OVCAR-8) | GI50 (EKVX) | GI50 (786-0) | GI50 (A549) | GI50 (MDA-N) | GI50 (UACC-62) | GI50 (SN12C) | GI50 (SK-MEL-28) | GI50 (KM12) | GI50 (M14) | GI50 (LOX IMVI) | GI50 (HCT-116) | GI50 (OVCAR-5) | GI50 (Malme-3M) | GI50 (OVCAR-3) | GI50 (SK-OV-3) |
| --- | --- | --- | --- | --- | --- | --- | --- | --- | --- | --- | --- | --- | --- | --- | --- | --- | --- | --- | --- | --- |
| Cc1ccc2c(=O)c(-c3nnsn3)c[nH]c2n1 | > 100 µM (inactive) | > 100 µM (inactive) | > 100 µM (inactive) | > 100 µM (inactive) | > 100 µM (inactive) | > 100 µM (inactive) | > 100 µM (inactive) | > 100 µM (inactive) | > 100 µM (inactive) | > 100 µM (inactive) | > 100 µM (inactive) | > 100 µM (inactive) | > 100 µM (inactive) | > 100 µM (inactive) | > 100 µM (inactive) | > 100 µM (inactive) | > 100 µM (inactive) | > 100 µM (inactive) | > 100 µM (inactive) |  |
| CCCC1C(C#N)(C#N)C(C#N)=C(N)C1(C)C(C)=O (configuration not stated) | 65.2 µM (inactive) | > 100 µM (inactive) | 43.7 µM (inactive) | > 100 µM (inactive) | > 100 µM (inactive) | > 100 µM (inactive) | 53.3 µM (inactive) | > 100 µM (inactive) | 42.7 µM (inactive) | > 100 µM (inactive) | > 100 µM (inactive) |  | > 100 µM (inactive) | > 100 µM (inactive) | > 100 µM (inactive) | 73.1 µM (inactive) | > 100 µM (inactive) | 77.1 µM (inactive) |  | > 100 µM (inactive) |
| CC[C@]1(O)C[C@H]2CN(CCc3c([nH]c4ccccc34)[C@@](C(=O)OC)(c3cc4c(cc3OC)N(C)[C@H]3[C@@](O)(C(=O)OC)[C@H](OC(C)=O)[C@]5(CC)C=CCN6CC[C@]43[C@@H]65)C2)C1 | 0.000354 µM (active) | 0.000986 µM (active) | 0.00115 µM (active) | 0.00045 µM (active) | 0.00129 µM (active) | 0.0259 µM (active) | 0.000964 µM (active) | 0.00157 µM (active) | 0.000476 µM (active) | 0.000373 µM (active) | 0.00132 µM (active) | 0.00165 µM (active) | 0.000493 µM (active) | 0.000762 µM (active) | 0.000538 µM (active) | 0.000481 µM (active) |  | 0.000557 µM (active) | 0.00038 µM (active) | 0.000867 µM (active) |
| CC(=O)Nc1ccc(S(=O)(=O)Nc2nc(-c3ccc(Cl)cc3)cc(N3N=C(c4ccc(Br)cc4)CC3c3ccccc3)n2)cc1 (configuration not stated) |  |  | 12.9 µM (inactive) | 2.87 µM (inactive) | 17.9 µM (inactive) | 13.6 µM (inactive) | 18.8 µM (inactive) | 17.7 µM (inactive) | 5.51 µM (inactive) | 12.6 µM (inactive) | 16 µM (inactive) | 18.6 µM (inactive) | 10.7 µM (inactive) | 18.1 µM (inactive) | 15.9 µM (inactive) | 14.4 µM (inactive) | 14.3 µM (inactive) | 16.1 µM (inactive) | 2.06 µM (inactive) | 15.8 µM (inactive) |
| Cc1ccc2c(c1)CC1(C2=O)[C@H](c2ccccc2)C2C(=O)c3ccc(C)cc3C2[C@H]1c1ccccc1 (some centres not stated) |  | > 100 µM (inactive) | > 100 µM (inactive) | 69.8 µM (inactive) | > 100 µM (inactive) | > 100 µM (inactive) | > 100 µM (inactive) | > 100 µM (inactive) | > 100 µM (inactive) | > 100 µM (inactive) | > 100 µM (inactive) | > 100 µM (inactive) | > 100 µM (inactive) | > 100 µM (inactive) | > 100 µM (inactive) | 24.9 µM (inactive) | > 100 µM (inactive) | > 100 µM (inactive) | > 100 µM (inactive) | > 100 µM (inactive) |
| COc1ccc2c(c1)NC1(CCN(CCCC(=O)c3ccc(F)cc3)CC1)N=N2 | 12.6 µM (inactive) | 41.8 µM (inactive) | 22 µM (inactive) | 17.4 µM (inactive) |  | 32.2 µM (inactive) | 19.3 µM (inactive) | 36.4 µM (inactive) | 17.7 µM (inactive) | 20.9 µM (inactive) | 21 µM (inactive) | 20 µM (inactive) | 20.1 µM (inactive) | 13.7 µM (inactive) | 18.7 µM (inactive) | 17.1 µM (inactive) | 23.5 µM (inactive) | 15.2 µM (inactive) | 23.3 µM (inactive) | 33.4 µM (inactive) |
| CC1(C)[C@@H]2CC[C@@]1(C)[C@@H]1O[C@@H](O[C@@H](CN)c3cc(Cl)c(OCc4ccccc4)c(OCc4ccccc4)c3)C[C@H]21 | 0.178 µM (active) | 0.192 µM (active) | 0.184 µM (active) | 0.134 µM (active) | 0.189 µM (active) | 0.166 µM (active) | 0.181 µM (active) | 0.163 µM (active) | 0.152 µM (active) |  | 0.183 µM (active) | 0.19 µM (active) | 0.169 µM (active) | 0.164 µM (active) | 0.166 µM (active) | 0.15 µM (active) | 0.166 µM (active) | 0.183 µM (active) | 0.168 µM (active) | 0.175 µM (active) |
| COC(=O)/C=C(\S/C=C(/c1ccccc1)N1CCn2c(C(=O)c3ccccc3)c(C(=O)OC)c(C(=O)OC)c21)C(=O)OC | > 10 µM (inactive) |  | > 10 µM (inactive) | 1.42 µM (inactive) | 1.73 µM (inactive) | > 10 µM (inactive) | 1.66 µM (inactive) | > 10 µM (inactive) | > 10 µM (inactive) | > 10 µM (inactive) | 5.05 µM (inactive) |  | > 10 µM (inactive) | 2.4 µM (inactive) | 1.47 µM (inactive) | 2.34 µM (inactive) | 9.95 µM (inactive) | 2.2 µM (inactive) | 1.51 µM (inactive) | > 10 µM (inactive) |
| CCCCc1ccc(Nc2nc3c(ncn3C3OC(COC(C)=O)C(OC(C)=O)C3OC(C)=O)c(=O)[nH]2)cc1 (configuration not stated) | 17.4 µM (inactive) | 19.4 µM (inactive) | 21.1 µM (inactive) | 23 µM (inactive) | 18.4 µM (inactive) | 36.7 µM (inactive) | 17.2 µM (inactive) | 92.7 µM (inactive) | 19.5 µM (inactive) | 19 µM (inactive) | 24.2 µM (inactive) |  | 18.4 µM (inactive) | 20.6 µM (inactive) | 18.5 µM (inactive) | 17.1 µM (inactive) | 79.6 µM (inactive) | 19.4 µM (inactive) | 15.3 µM (inactive) | 27 µM (inactive) |
| COc1ccc(OCC(=N/NC(=O)c2ccncc2)/N=C/c2ccncc2)cc1 |  | > 100 µM (inactive) | 67.5 µM (inactive) | 54.6 µM (inactive) | > 100 µM (inactive) | > 100 µM (inactive) | > 100 µM (inactive) | > 100 µM (inactive) | 17.6 µM (inactive) | 53.6 µM (inactive) | > 100 µM (inactive) | 75.5 µM (inactive) | 60 µM (inactive) | 82 µM (inactive) | > 100 µM (inactive) | 83.9 µM (inactive) | > 100 µM (inactive) | > 100 µM (inactive) | 48.6 µM (inactive) | 94.4 µM (inactive) |
